Results as given in paper PMC7279038, “Antioxidant and Neuroprotective Effects Induced by Cannabidiol and Cannabigerol in Rat CTX-TNA2 Astrocytes and Isolated Cortexes” (International Journal of Molecular Sciences, 2020).

Legend:
[1] = tested on: CTX-TNA2 astrocyte cell line; test: Apoptosis occurrence, Annexin-V/PI flow cytometry; format: cell-based, rat; conditions: challenged with H2O2; CBD 1000 nM, CBG 1 nM; 24 h, lasting up to 48 h
Experimental: The CTX-TNA2 rat astrocytes were purchased from the European Collection of Cell Cultures (ECACC), Sigma-Aldrich, Milan, Italy, and cultured as already indicated. Cells were grown in Dulbecco’s Modified Eagle Medium supplemented with 10% of FBS and penicillin–streptomycin (100 µgmL^−1) (all from EuroClone SpA Life-Sciences-Division, Milan, Italy) and maintained in a humified atmosphere of 5% CO2 at 37 °C. Cells were subcultivated at a ratio of 1.2 to 1.8 and the medium was changed every 3 days. CTX-TNA2 astrocytes were plated in 25 or 75 cm^2 flasks, according to experimental needing and cells between the eight and the 15 passage were used.
When indicated, the cells were treated with H2O2 300 µM for three hours and different concentrations of CBD (1–1000 nM) and CBG (1–1000 nM). The stock solutions were diluted in cell medium to the point that the concentration of DMSO in the samples was less than 0.0003%. Therefore, the addition of DMSO to the control samples was not necessary.
A FITC Annexin-V apoptosis detection kit (BD Pharmingen, San Diego, CA, USA) was used to assess apoptosis, according to the manufacturer’s instructions. […] After the addition of 200 µL of binding buffer, samples were analyzed with a Cytoflex flow cytometer with the FL1 and FL3 detector in a log mode, using the Cytoexpert analysis software (both from Beckmann Coulter). […]

[2] = tested on: cytochrome C (Cyt C); test: Western blotting analysis of cytochrome C; format: cell-based, rat; conditions: CTX-TNA2 challenged with H2O2, 24 h; 1000 nM CBD, 1 nM CBG
Experimental: […] The stock solutions were diluted in cell medium to the point that the concentration of DMSO in the samples was less than 0.0003%. Therefore, the addition of DMSO to the control samples was not necessary.
The western blowing analysis of Bax and Cyt C was carried out as previously reported. Specifically, CTX-TNA2 lysates (20 µg) were boiled fof 5 min in sample buffer, made of tris-HCl pH 6.8, glycerol, 2-mercaptoethanol, SDS and bromophenol blue. They were then electrophoresed and transferred to nitrocellulose membranes. […] Immunoreactive bands were identified using the ECL detection system (Euroclone, Pero, Milano, Italy) and analyzed by densitometry. Densitometric values were quantified by the CHEMIDOC XRS system and expressed as Integrated Optical Intensity using the QuantiOne 1-D analysis software (Bio-rad Laboratories, Richmond, CA, USA). […] Results are expressed as the mean ± SD.

[3] = tested on: isolated rat prefrontal cortex, nitrite; test: H2O2-induced nitrite level in isolated cortexes (Griess assay); conditions: hydrogen peroxide 300 µM; for inhibition of H2O2-induced increase in nitrite level: 1–1000 nM
Experimental: Sprague–Dawley rats (200–250 g) were sacrificed by CO2 inhalation and isolated prefrontal cortex specimens were immediately explanted and exposed to 300 µM H2O2 and different concentrations of CBD (1–1000 nM) and CBG (1–1000 nM) for one hour, at 37 °C. The nitrite concentration in the resuspension buffer was determined by colorimetric Griess assay. Specifically, cortex specimens were homogenized for 2 min with Potter–Elvehjem homogenizer in 2 mL DMEM buffer. The homogenate was centrifuged at 4500 g for 10 min and nitrite production was determined in the supernatant fraction by mixing 50 µL of the assay buffer with 50 µL of Griess reagent (1.5% sulfanilamide in 1M HCl plus 0.15% N-(1-naphthyl) ethylenediamine dihydrochloride in distilled water, v/v). After 10 min incubation at room temperature, the absorbance at 540 nm was determined and nitrite concentrations were calculated from a sodium nitrite standard curve. All measurements were performed in triplicate.

In the case of C=C(C)[C@@H]1CCC(C)=C[C@H]1c1c(O)cc(CCCCC)cc1O [CBD, Cannabidiol], the “early apoptosis (Annexin-Vpos/PIneg cells)” value [1] is reported as “reduce early apoptosis”, the “Cyt C expression” value [2] is reported as “decrease the Cyt C levels in comparison to H2O2 sample” and the “inhibition of H2O2-induced increase in nitrite level” value [3] is reported as “inhibit such an increase at all the tested concentrations”.

In the case of CCCCCc1cc(O)c(C/C=C(\C)CCC=C(C)C)c(O)c1 [CBG, cannabigerol], the “early apoptosis (Annexin-Vpos/PIneg cells)” value [1] is reported as “reduce early apoptosis”, the “Cyt C expression” value [2] is reported as “effect on Bax only” and the “inhibition of H2O2-induced increase in nitrite level” value [3] is reported as “significant at the two lowest tested concentrations only”. The “concentration of maximal inhibition of nitrite production” value ([3]; tested 1–1000 nM) was 1 nM.
